Data reported in ChEMBL document CHEMBL2074379, “Possible involvement of organic anion transporter 2 on the interaction of theophylline with erythromycin in the human liver” (Drug Metab Dispos, 2005).

Assays:
Format in all cases: functional, cell-based
Settings in all cases: oocyte
[1] = target: T1, Solute carrier family 22 member 7 (Homo sapiens, UniProt Q9Y694); experiment: TP_TRANSPORTER: inhibition of theophylline uptake in OAT2-expressing oocytes
T1 sequence (Q9Y694 whole entry): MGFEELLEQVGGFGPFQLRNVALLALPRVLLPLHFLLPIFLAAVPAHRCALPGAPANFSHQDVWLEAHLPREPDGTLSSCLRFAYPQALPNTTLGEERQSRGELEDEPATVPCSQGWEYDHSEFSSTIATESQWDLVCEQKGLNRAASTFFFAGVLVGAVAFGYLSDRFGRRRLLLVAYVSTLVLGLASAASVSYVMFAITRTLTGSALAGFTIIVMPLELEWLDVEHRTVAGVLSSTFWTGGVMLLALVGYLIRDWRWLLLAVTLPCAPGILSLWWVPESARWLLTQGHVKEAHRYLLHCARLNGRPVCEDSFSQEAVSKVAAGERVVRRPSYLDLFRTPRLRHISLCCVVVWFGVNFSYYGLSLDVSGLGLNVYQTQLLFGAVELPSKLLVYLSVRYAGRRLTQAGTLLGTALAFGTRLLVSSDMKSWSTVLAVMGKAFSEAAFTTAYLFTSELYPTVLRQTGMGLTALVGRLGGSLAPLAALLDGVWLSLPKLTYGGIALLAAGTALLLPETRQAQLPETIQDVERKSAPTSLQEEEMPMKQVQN

[2] = target: T1, Solute carrier family 22 member 7; experiment: TP_TRANSPORTER: uptake in OAT2-expressing oocytes
[3] = target: T1, Solute carrier family 22 member 7; experiment: TP_TRANSPORTER: inhibition of erythromycin uptake in OAT2-expressing oocytes

SMILES: CC[C@H]1OC(=O)[C@H](C)[C@@H](O[C@H]2C[C@@](C)(OC)[C@@H](O)[C@H](C)O2)[C@H](C)[C@@H](O[C@@H]2O[C@H](C)C[C@H](N(C)C)[C@H]2O)[C@](C)(OC)C[C@@H](C)C(=O)[C@H](C)[C@@H](O)[C@]1(C)O [CLARITHROMYCIN]
- Activity [1]: inhibitor []

SMILES: CC[C@H]1OC(=O)[C@H](C)[C@@H](O[C@H]2C[C@@](C)(OC)[C@@H](O)[C@H](C)O2)[C@H](C)[C@@H](O[C@@H]2O[C@H](C)C[C@H](N(C)C)[C@H]2O)[C@](C)(O)C[C@@H](C)C(=O)[C@H](C)[C@@H](O)[C@]1(C)O [ERYTHROMYCIN]
- Activity [2]: substrate []
- Activity [1]: inhibitor []

SMILES: Cn1c(=O)c2[nH]cnc2n(C)c1=O.O [THEOPHYLLINE]
- Activity [2]: substrate []
- Activity [3]: inhibitor []
